In brackets after ≈: the same amount, converted by molar mass. Activity calls are given as the source filed them.

The subject of data set [1] is Klebsiella pneumoniae. The data set is described as follows: Antibacterial activity against Klebsiella pneumoniae BAA-1706 clinical isolates after 18 to 20 hrs in aerobic condition by CLSI-based broth microdilution assay. In kind it is functional. For orientation: In broth dilution the organism is exposed to a series of concentrations in liquid medium.
The subject of data set [2] is Escherichia coli. The data set is described as follows: Antibacterial activity against Escherichia coli BW25113 clinical isolates after 18 to 20 hrs in aerobic condition by CLSI-based broth microdilution assay. In kind it is functional.
The test system of data set [3] is Acinetobacter baumannii. Briefly: Antibacterial activity against Acinetobacter baumannii ATCC 19606 clinical isolates after 18 to 20 hrs in aerobic condition by CLSI-based broth microdilution assay. As to conditions: ATCC 19606 = CIP 70.34 = JCM 6841. In kind it is functional.
Data set [4] deals with Pseudomonas aeruginosa. Briefly: Antibacterial activity against Pseudomonas aeruginosa ATCC 15442 clinical isolates after 18 to 20 hrs in aerobic condition by CLSI-based broth microdilution assay. The class given is functional.
Data set [5] concerns Escherichia coli. The data set is described as follows: Antimicrobial activity against Escherichia coli JW55031 harboring deltatolC mutant after 18 to 20 hrs in aerobic condition by CLSI protocol based broth microdilution assay. The class given is functional.
For data set [6], the system named is Staphylococcus aureus. Briefly: Antibacterial activity against methicillin-resistant Staphylococcus aureus NRS384-USA300 clinical isolates after 18 to 20 hrs in aerobic condition by CLSI protocol based broth microdilution assay. The class given is functional.
Data set [7] relates to Pseudomonas aeruginosa. The data set is described as follows: Antibacterial activity against carbapenem-resistant Pseudomonas aeruginosa ATCC 1744 clinical isolates after 18 to 20 hrs in aerobic condition by CLSI-based broth microdilution assay. In kind it is functional.
In data set [8] the test system is Klebsiella pneumoniae. The data set is described as follows: Antibacterial activity against carbapenem-resistant Klebsiella pneumoniae ATCC BAA-2146 clinical isolates after 18 to 20 hrs in aerobic condition by CLSI-based broth microdilution assay. The class given is functional.
The test system of data set [9] is Escherichia coli. Briefly: Antibacterial activity against carbapenem-resistant Escherichia coli BAA-2469 clinical isolates after 18 to 20 hrs in aerobic condition by CLSI-based broth microdilution assay. The class given is functional.
Data set [10] has as its system Escherichia coli. The data set is described as follows: Antibacterial activity against carbapenem-resistant Escherichia coli BAA-2452 clinical isolates after 18 to 20 hrs in aerobic condition by CLSI-based broth microdilution assay. The class given is functional.
In data set [11] the test system is Klebsiella pneumoniae. The data set is described as follows: Antibacterial activity against carbapenem-resistant Klebsiella pneumoniae ATCC BAA-1705 clinical isolates after 18 to 20 hrs in aerobic condition by CLSI-based broth microdilution assay. The class given is functional.
Data set [12] relates to Acinetobacter baumannii. Briefly: Antibacterial activity against carbapenem-resistant Acinetobacter baumannii ATCC BAA 1605 clinical isolates after 18 to 20 hrs in aerobic condition by CLSI-based broth microdilution assay. In kind it is functional.
The nature of data set [13]: Apparent permeability across basolateral to apical side in human Caco2 cells after 2 hrs by LC/MS/MS analysis. In kind it is ADME, cell-based. As to conditions: Caco-2. A general note: Caco-2 cells form a polarised layer with tight junctions and transporters.
Data set [14] in a line: Efflux ratio of apparent permeability across basolateral to apical side over apical to basolateral side in human Caco2 cells after 2 hrs by LC/MS/MS analysis. In kind it is ADME, cell-based. As to conditions: Caco-2.

With `C/C(=N\NC(=N)N)c1sc(-c2ccc(C#CC3CCCC3)cc2)nc1C`, the outcome in data set [1], in [2], in data set [3], in [4] and in data set [5] was inactive.

For the compound `CCN(CC)CC#Cc1ccc(-n2ncc(/C(C)=N/NC(=N)N)c2C)cc1`, the MIC in data set [6] and in data set [5] was 128 µg/mL (≈ 350 µM) throughout.

As for COLISTIN, the MIC (as a rule, the smallest concentration in the dilution series that meets the test's criterion for growth inhibition) in data set [7] was found to be 1 µg/mL; in data set [8], 0.25 µg/mL; in [9] it was 0.06 µg/mL; in data set [10], 0.06 µg/mL; in [11], 0.125 µg/mL; in data set [12] it was 0.25 µg/mL.

`CCCCC#Cc1ccc(-n2ncc(/C(C)=N/NC3=NCCN3)c2C)cc1`: the MIC in [6] turned out to be 2 µg/mL (≈ 5.52 µM); in [5], 4 µg/mL (≈ 11 µM).

As for `CC(=O)C(=CN(C)C)C(C)=O`, the basolateral-to-apical permeability (Papp B→A) (as a rule, how fast a substance crosses the layer from the basolateral side) at 2 h in [13] stood at 1.2 ×10⁻⁶ cm/s. Moreover, the efflux ratio (commonly a quotient of directional permeabilities that is used to spot active efflux) at 2 h in data set [14] was greater than 2.

Consider `C/C(=N\NC(=N)N)c1cnn(-c2ccc(C#CC(C)(C)O)cc2)c1C`, for which the MIC in data set [6] and in data set [5] was 128 µg/mL (≈ 378 µM) in each case.

With `CCN(CC)CC#Cc1ccc(-n2ncc(/C(C)=N/NC3=NCCN3)c2C)cc1`, the MIC in [6] and in data set [5] was greater than 128 µg/mL throughout.

In the case of `C/C(=N\NC1=NCCN1)c1cnn(-c2ccc(C#Cc3ccccc3)cc2)c1C`, the minimal inhibitory concentration (MIC) in data set [6] and in data set [5] was 4 µg/mL (≈ 10.5 µM) throughout.

As for `CCCC#Cc1ccc(-n2ncc(/C(C)=N/NC3=NCCN3)c2C)cc1`, the MIC in [6] is 8 µg/mL (≈ 23 µM); in data set [5], 16 µg/mL (≈ 45.9 µM).

Regarding `C/C(=N\NC1=NCCN1)c1cnn(-c2ccc(C#CC3CC3)cc2)c1C`, the MIC in data set [6] amounted to 16 µg/mL (≈ 46.2 µM); in data set [5] it was 32 µg/mL (≈ 92.4 µM).

In the case of `C/C(=N\NC1=NCCN1)c1cnn(-c2ccc(C#CC(C)(C)O)cc2)c1C`, the MIC amounted to 32 µg/mL (≈ 87.8 µM) in [6] and 16 µg/mL (≈ 43.9 µM) in [5].

Consider `C/C(=N\NC(=N)N)c1cnn(-c2ccc(C#CC(C)(C)C)cc2)c1C`, for which the MIC in data set [6] and in data set [5] was 8 µg/mL (≈ 23.8 µM) each time.

For `C[C@@H](O)[C@H]1C(=O)N2C(C(=O)O)=C(SCCNC=N)C[C@H]12` [IMIPENEM ANHYDROUS], the MIC in data set [7] turned out to be 16 µg/mL (≈ 53.4 µM); in [8], 32 µg/mL (≈ 107 µM); in data set [9], 32 µg/mL (≈ 107 µM); in data set [10], 32 µg/mL (≈ 107 µM); in data set [11], 32 µg/mL (≈ 107 µM); in [12] it was 32 µg/mL (≈ 107 µM).

The values are drawn from ChEMBL document CHEMBL4334464, “From Phenylthiazoles to Phenylpyrazoles: Broadening the Antibacterial Spectrum toward Carbapenem-Resistant Bacteria” (J Med Chem, 2019).
